Results: patent publication EP4559908A1, “HETEROARYL DERIVATIVE COMPOUND AND USE THEREOF” (S2CBio Inc., priority 2022, dated 2024)
Read-outs that look alike come from different tables or passages of the source.

Target: T1, human ANO6 (variant 5) (Homo sapiens, UniProt Q4KMQ2)
T1 construct: expressed in transfected cells; host or cells: Fischer rat thyroid (FRT) cells
T1 sequence (Q4KMQ2 1-931 isoform Q4KMQ2-2): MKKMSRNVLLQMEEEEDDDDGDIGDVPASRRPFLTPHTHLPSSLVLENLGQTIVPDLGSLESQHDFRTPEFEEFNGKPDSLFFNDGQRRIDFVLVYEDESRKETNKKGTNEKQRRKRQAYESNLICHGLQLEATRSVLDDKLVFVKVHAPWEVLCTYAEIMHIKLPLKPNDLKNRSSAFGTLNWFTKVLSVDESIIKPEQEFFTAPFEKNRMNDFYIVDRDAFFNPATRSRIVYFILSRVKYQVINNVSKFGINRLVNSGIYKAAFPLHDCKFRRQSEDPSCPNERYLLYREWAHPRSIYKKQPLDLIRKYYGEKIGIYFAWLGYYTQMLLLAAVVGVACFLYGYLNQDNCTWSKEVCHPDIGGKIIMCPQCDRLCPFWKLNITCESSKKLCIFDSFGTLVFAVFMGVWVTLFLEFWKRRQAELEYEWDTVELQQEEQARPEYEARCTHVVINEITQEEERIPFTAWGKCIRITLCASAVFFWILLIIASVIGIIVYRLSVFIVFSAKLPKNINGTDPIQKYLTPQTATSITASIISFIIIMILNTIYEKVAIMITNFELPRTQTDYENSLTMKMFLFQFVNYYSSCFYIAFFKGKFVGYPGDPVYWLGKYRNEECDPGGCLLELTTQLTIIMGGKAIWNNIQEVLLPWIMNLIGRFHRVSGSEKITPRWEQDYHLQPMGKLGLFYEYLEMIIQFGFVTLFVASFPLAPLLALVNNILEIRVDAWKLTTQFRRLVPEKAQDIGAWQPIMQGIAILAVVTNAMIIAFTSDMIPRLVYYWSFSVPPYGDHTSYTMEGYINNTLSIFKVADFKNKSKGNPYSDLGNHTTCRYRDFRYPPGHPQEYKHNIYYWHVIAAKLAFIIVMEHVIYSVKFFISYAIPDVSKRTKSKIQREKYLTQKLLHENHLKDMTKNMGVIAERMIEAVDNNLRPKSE
Assay: Lact C2 assay (measuring phosphatidylserine externalization scramblase function)
Type: cell-based
Details: FRT; for inhibition at 0.05 µM: read-out: % Inhibition 50 nM; for inhibition at 0.1 µM: compound 100 nM
Method: Ionomycin (Alomonelab, cat. # I-700), DAPI (Sigma- Aldrich, cat. # D8417), paraformaldehyde (Biosesang, cat. #P2031), Lionheart FX automated fluorescence microscope (BioTek), Gen5™ software program (BioTek), and Image J analysis software program.
After the incubation, the cells were treated with compounds dissolved in DMSO to 1% v/v in each well at each concentration (50 nM, 100 nM, and 1 µM) and reacted for 10 minutes. Thereafter, each well was treated with ionomycin to a final concentration of 10 µM, allowed to react for 10 minutes, and then washed with 200 µL PBS. After washing, each well was treated with 50 µL of Lactadherin-C2 (Lact-C2)-GFP mixed in DMEM medium to a final concentration of 500 nM to stain phosphatidylserine, and cultured at 37°C for 10 minutes. After completion of the reaction, the cells were washed with 200 µL PBS, and fixed with 4% paraformaldehyde for 5 minutes at room temperature. For morphological analysis, DAPI solution was added, and the cells were incubated for 15 minutes, followed by washing with PBS. The fluorescence intensity of Lact-C2-GFP bound to phosphatidylserine on the cell surface was measured using an automated fluorescence microscope. For quantitative analysis of the fluorescence intensity of Lact-C2-GFP, BioTek Gen5™ software and Image J analysis software programs were used.
Phosphatidylserine externalization inhibitory activity (%) by the compound was calculated through the following analysis method. Specifically, the background fluorescence value was subtracted from the measured Lact-C2-GFP fluorescence value, and the fluorescence value of the ionomycin non-treatment group and the ionomycin-treatment group in the same row where each test group was located in a 96-well microplate were calculated. In order to calculate the inhibitory activity (%) by the compound, the relative inhibitory activity was calculated by setting the compound and ionomycin non-treatment group to 100% inhibitory activity and the ionomycin alone treatment group to 0% inhibitory activity.

[1] = compound 50 nM, FRT cells expressing human ANO6 (variant 5), ionomycin 10 µM, Lact-C2-GFP fluorescence, average of three tests
[2] = FRT cells expressing human ANO6 (variant 5), ionomycin 10 µM, Lact-C2-GFP fluorescence, average of three tests
[3] = compound 1 µM, FRT cells expressing human ANO6 (variant 5), ionomycin 10 µM, Lact-C2-GFP fluorescence, average of three tests, read-out: % Inhibition 1 µM

| SMILES | inhibition at 0.05 µM [1] | inhibition at 0.1 µM [2] | inhibition at 1 µM [3] | further results |
| --- | --- | --- | --- | --- |
| c1cc(Nc2ccc(-c3cnccn3)cc2)cc(-c2nc3ccccc3[nH]2)c1 [Example 32, 3-(1H-benzo[d]imidazol-2-yl)-N-(4-(pyrazin-2-yl)phenyl)aniline] | 30 to 60% | 30 to 60% |  |  |
| Clc1cc2[nH]c(-c3cccc(Nc4ncc(-c5ccccn5)cn4)c3)nc2cn1 [Example 64, N-(3-(6-chloro-1H-imidazolo[4,5-c]pyridin-2-yl)phenyl)-5-(pyridin-2-yl)pyrimidin-2-amine] | 30 to 60% | 30 to 60% |  |  |
| Fc1cc2nc(-c3cccc(Nc4ccc(-c5ccccc5)nn4)c3)[nH]c2cc1Br [Example 4, N-[3-(6-bromo-5-fluoro-1H-benzo[d]imidazol-2-yl)phenyl]-6-phenylpyridazin-3-amine] | 30 to 60% | > 60% | > 60% |  |
| c1cc(Nc2ccc(-c3ccncn3)cn2)cc(-c2nc3ccccc3[nH]2)c1 [Example 68, N-[3-(1H-benzo[d]imidazol-2-yl)phenyl]-5-(pyrimidin-4-yl)pyridin-2-amine] | > 60% | > 60% |  |  |
| Fc1cc2[nH]c(-c3cccc(Nc4ccc(-c5cccnn5)cc4)c3)nc2cc1Cl [Example 102, 3-(5-chloro-6-fluoro-1H-benzo[d]imidazol-2-yl)-N-(4-pyridazin-3-ylphenyl)aniline] | > 60% |  | > 60% |  |
| Clc1cc2nc(-c3cccc(Nc4ccc(-c5ccccc5)cn4)c3)[nH]c2cc1Cl [Example 13, N-[3-(5,6-dichloro-1H-benzo[d]imidazol-2-yl)phenyl]-5-phenylpyridin-2-amine] | > 60% | > 60% | > 60% |  |
| CN(Cc1ccccc1)c1ccc2nc(-c3cccc(Nc4ccc(-c5cccnn5)cc4)c3)[nH]c2c1 [Example 280, N-benzyl-N-methyl-2-(3-((4-(pyridazin-3-yl)phenyl)amino)phenyl)-1H-benzo[d]imidazol-6-amine] |  |  |  | inhibition at 0.05 µM: 30 to 60%; inhibition at 1 µM (read-out: % Inhibition 1 µM): > 60% |
| c1cc(Nc2ccc(-c3ccncc3)cc2)cc(-c2nc3ccccc3[nH]2)c1 [Example 33, N-[3-(1H-benzo[d]imidazol-2-yl)phenyl]-4-(pyridin-4-yl)aniline] | 30 to 60% | 30 to 60% |  |  |
| Fc1ccc2nc(-c3cccc(Nc4ccc(-c5cccnn5)cc4)c3)[nH]c2c1 [Example 25, 3-(6-fluoro-1H-benzo[d]imidazol-2-yl)-N-(4-(pyridazin-3-yl)phenyl)aniline] | > 60% | > 60% | > 60% |  |
| Fc1ccc2nc(-c3cccc(Nc4ncc(-c5ccccn5)cn4)c3)[nH]c2c1 [Example 45, N-[3-(6-fluoro-1H-benzo[d]imidazol-2-yl)phenyl]-5-(pyridin-2-yl)pyrimidin-2-amine] | > 60% | > 60% |  |  |
| c1ccc(-c2ccc(Nc3cccc(-c4nc5ccccc5[nH]4)c3)nn2)nc1 [Example 255, N-(3-(1H-benzo[d]imidazol-2-yl)phenyl)-6-(pyridin-2-yl)pyrimidin-3-amine] |  |  |  | inhibition at 1 µM (read-out: % Inhibition 1 µM, compound 1 µM, FRT cells expressing human ANO6 (variant 5), ionomycin 10 µM, Lact-C2-GFP fluorescence, average of three tests): > 60% |
| c1cc(Nc2ccc(-c3cccnn3)cn2)cc(-c2nc3ccccc3[nH]2)c1 [Example 56, N-[3-(1H-benzo[d]imidazol-2-yl)phenyl]-5-(pyridazin-3-yl)pyridin-2-amine] | 30 to 60% | > 60% |  |  |
| Cc1cscc1-c1cnc(Nc2cccc(-c3nc4ccccc4[nH]3)c2)nc1 [Example 43, N-(3-(1H-benzo[d]imidazol-2-yl)phenyl)-5-(4-methylthiophen-3-yl)pyrimidin-2-amine] | > 60% | > 60% |  |  |

Now from value to molecule, other results behind:

| inhibition at 0.05 µM [1] | inhibition at 0.1 µM [2] | inhibition at 1 µM [3] | SMILES | further results |
| --- | --- | --- | --- | --- |
| 30 to 60% |  | > 60% | Cc1cc(-c2cccnn2)ccc1Nc1cccc(-c2nc3ccccc3[nH]2)c1 [Example 203, N-(3-(1H-benzo[d]imidazol-2-yl)phenyl)-2-methyl-4-(pyridazin-3-yl)aniline] |  |
| 30 to 60% |  |  | Brc1cc2[nH]c(-c3cccc(Nc4ccc(-c5cccnn5)cc4)c3)nc2cn1 [Example 218, 3-(6-bromo-1H-imidazo[4,5-c]pyridin-2-yl)-N-(4-(pyridazin-3-yl)phenyl)aniline] |  |
|  |  | 30 to 60% | FC(F)(F)c1ccc2nc(-c3cc(Nc4ccc(-c5cccnn5)cc4)ccn3)[nH]c2c1 [Example 263, N-(4-(pyridazin-3-yl)phenyl)-2-(6-(trifluoromethyl)-1H-benzo[d]imidazol-2-yl)pyridin-4-amine] |  |
|  |  | > 60% | c1cc(Nc2ncc(-c3ccoc3)cn2)cc(-c2nc3ccccc3[nH]2)c1 [Example 163, N-[3-(1H-benzo[d]imidazol-2-yl)phenyl]-5-(3-furyl)pyrimidin-2-amine] |  |
| 30 to 60% |  | > 60% | CC(C)(C)c1ccc2nc(-c3cccc(Nc4ccc(-c5cccnn5)cc4)c3)[nH]c2c1 [Example 107, 3-(6-tert-butyl-1H-benzo[d]imidazol-2-yl)-N-(4-pyridazin-3-ylphenyl)aniline] |  |
| 30 to 60% |  | > 60% | FC(F)(F)c1cnc2nc(-c3cccc(Nc4ccc(-c5cccnn5)cc4)c3)[nH]c2c1 [Example 234, N-(4-(pyridazin-3-yl)phenyl)-3-(6-(trifluoromethyl)-1H-imidazo[4,5-b]pyridin-2-yl)aniline] |  |
| > 60% |  | > 60% | FC(F)(F)Oc1cc2[nH]c(-c3cccc(Nc4ccc(-c5cccnn5)cc4)c3)nc2cn1 [Example 232, N-(4-(pyridazin-3-yl)phenyl)-3-(6-(trifluoromethoxy)-1H-imidazo[4,5-c]pyridin-2-yl)aniline] |  |
| > 60% |  | > 60% | Fc1cc2[nH]c(-c3cccc(Nc4ccc(-c5cccnn5)cc4)c3)nc2cc1C(F)(F)F [Example 104, 3-[6-fluoro-5-(trifluoromethyl)-1H-benzo[d]imidazol-2-yl]-N-(4-pyridazin-3-ylphenyl)aniline] |  |
|  |  | 30 to 60% | CN(C)CCOc1ccc(-c2nc3ccc(C(F)(F)F)cc3[nH]2)cc1Nc1ccc(-c2cnccn2)cc1 [Example 174, 2-[2-(dimethylamino)ethoxy]-N-(4-pyrazin-2-ylphenyl)-5-[6-(trifluoromethyl)-1H-benzo[d]imidazol-2-yl]aniline] |  |
| > 60% |  | > 60% | FC(F)Oc1ccc2nc(-c3cccc(Nc4ncc(-c5ccccn5)cn4)c3)[nH]c2c1 [Example 285, N-(3-(6-(difluoromethoxy)-1H-benzo[d]imidazol-2-yl)phenyl)-5-(pyridin-2-yl)pyrimidin-2-amine] |  |
| > 60% |  | > 60% | Fc1cc2[nH]c(-c3cccc(Nc4ccc(-c5ccccn5)cn4)c3)nc2cn1 [Example 281, N-(3-(6-fluoro-1H-imidazo[4,5-c]pyridin-2-yl)phenyl)-[2,3'-bipyridin]-6'-amine] |  |
|  |  | > 60% | FC(F)(F)c1cc2[nH]c(-c3cccc(Nc4ncc(-c5cccnn5)cn4)c3)nc2cn1 [Example 103, 5-pyridazin-3-yl-N-[3-[6-(trifluoromethyl)-1H-imidazo[4,5-c]pyridin-2-yl]phenyl]pyrimidin-2-amine] |  |
